Results: ChEMBL document CHEMBL1201862, “PubChem BioAssay data set” (2004)
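96-well plates; 48 h exposure; 5 concentrations. Endpoints by linear interpolation between flanking doses. Not reached: highest tested concentration assigned. GI50: concentration for 50% inhibition of growth.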 Calls of active or inactive are those of the source. No stated cut-off is given here; in the data, active = GI50 up to about 1.1 µM and inactive = higher.

Columns and labels:
Test in all cases: inhibition of tumour cell growth, NCI panel, 48 h
TK-10 = test system: TK-10
UO-31 = test system: UO-31
COLO 205 = test system: COLO 205
SK-MEL-5 = test system: SK-MEL-5
Malme-3M = test system: Malme-3M
HL-60 = test system: HL-60
SF-539 = test system: SF-539
SK-MEL-28 = test system: SK-MEL-28
SK-MEL-2 = test system: SK-MEL-2
A549 = test system: A549
HOP-62 = test system: HOP-62
MOLT-4 = test system: MOLT-4
OVCAR-5 = test system: OVCAR-5
U-251 = test system: U-251
DLD-1 = test system: DLD-1
EKVX = test system: EKVX
SNB-75 = test system: SNB-75
OVCAR-4 = test system: OVCAR-4
CCRF-CEM = test system: CCRF-CEM
HCT-15 = test system: HCT-15
LXFL 529 = test system: LXFL 529
NCI-H460 = test system: NCI-H460
OVCAR-8 = test system: OVCAR-8
HT-29 = test system: HT-29
SW-620 = test system: SW-620
NCI-H23 = test system: NCI-H23
HOP-92 = test system: HOP-92
RPMI-8226 = test system: RPMI-8226
LOX IMVI = test system: LOX IMVI
SN12C = test system: SN12C
SNB-78 = test system: SNB-78
DMS-273 = test system: DMS-273
HOP-18 = test system: HOP-18
KM-20L2 = test system: KM-20L2
HCC 2998 = test system: HCC 2998
KM12 = test system: KM12
UACC-62 = test system: UACC-62
SNB-19 = test system: SNB-19
UACC-257 = test system: UACC-257
SK-OV-3 = test system: SK-OV-3
K562 = test system: K562
M14 = test system: M14
DMS-114 = test system: DMS-114
M19-MEL = test system: M19-MEL
A498 = test system: A498
SR = test system: SR
RXF 393 = test system: RXF 393
ACHN = test system: ACHN
SF-295 = test system: SF-295
NCI-H226 = test system: NCI-H226
OVCAR-3 = test system: OVCAR-3
SF-268 = test system: SF-268
HCT-116 = test system: HCT-116
IGROV-1 = test system: IGROV-1
CAKI-1 = test system: CAKI-1
NCI-H522 = test system: NCI-H522
786-0 = test system: 786-0

With `Nc1nncc2c1ccn2C1OC(CO)C(O)C1O` (stereo not given) the GI50 (TK-10) was > 100 µM (inactive), the GI50 (UO-31) was > 100 µM (inactive) and the GI50 (COLO 205) was > 100 µM (inactive). The GI50 (SK-MEL-5) was > 100 µM (inactive), the GI50 (Malme-3M) was > 100 µM (inactive) and the GI50 (HL-60) was > 100 µM (inactive). The GI50 (SF-539) was > 100 µM (inactive), the GI50 (SK-MEL-28) was 82.8 µM (inactive) and the GI50 (SK-MEL-2) was > 100 µM (inactive). For the same compound, the GI50 (A549) was > 100 µM (inactive), the GI50 (HOP-62) was > 100 µM (inactive) and the GI50 (MOLT-4) was > 100 µM (inactive). For the same compound, the GI50 (OVCAR-5) was > 100 µM (inactive), the GI50 (U-251) was > 100 µM (inactive) and the GI50 (DLD-1) was > 100 µM (inactive). The GI50 (EKVX) was > 100 µM (inactive), the GI50 (SNB-75) was > 100 µM (inactive) and the GI50 (OVCAR-4) was > 100 µM (inactive). For the same compound, the GI50 (CCRF-CEM) was > 100 µM (inactive), the GI50 (HCT-15) was greater than 100 µM and the GI50 (LXFL 529) was > 100 µM (inactive). For the same compound, the GI50 (NCI-H460) was > 100 µM (inactive), the GI50 (OVCAR-8) was > 100 µM (inactive) and the GI50 (HT-29) was > 100 µM (inactive). The GI50 (SW-620) was > 100 µM (inactive), the GI50 (NCI-H23) was > 100 µM (inactive) and the GI50 (HOP-92) was > 100 µM (inactive). For the same compound, the GI50 (RPMI-8226) was > 100 µM (inactive), the GI50 (LOX IMVI) was > 100 µM (inactive) and the GI50 (SN12C) was > 100 µM (inactive). The GI50 (SNB-78) was > 100 µM (inactive), the GI50 (DMS-273) was > 100 µM (inactive) and the GI50 (HOP-18) was > 100 µM (inactive). The GI50 (KM-20L2) was > 100 µM (inactive), the GI50 (HCC 2998) was > 100 µM (inactive) and the GI50 (KM12) was > 100 µM (inactive). The GI50 (UACC-62) was > 100 µM (inactive), the GI50 (SNB-19) was > 100 µM (inactive) and the GI50 (UACC-257) was > 100 µM (inactive). For the same compound, the GI50 (SK-OV-3) was > 100 µM (inactive), the GI50 (K562) was > 100 µM (inactive) and the GI50 (M14) was > 100 µM (inactive). The GI50 (DMS-114) was > 100 µM (inactive), the GI50 (M19-MEL) was > 100 µM (inactive) and the GI50 (A498) was > 100 µM (inactive). The GI50 (SR) was > 100 µM (inactive), the GI50 (RXF 393) was > 100 µM (inactive) and the GI50 (ACHN) was > 100 µM (inactive). The GI50 (SF-295) was > 100 µM (inactive), the GI50 (NCI-H226) was > 100 µM (inactive) and the GI50 (OVCAR-3) was > 100 µM (inactive). For the same compound, the GI50 (SF-268) was > 100 µM (inactive), the GI50 (HCT-116) was > 100 µM (inactive) and the GI50 (IGROV-1) was > 100 µM (inactive).
For `N#CC(NNC(=O)Cc1ccccc1)c1cccc(O)c1` (stereo not given), the GI50 (TK-10) was > 100 µM (inactive), the GI50 (UO-31) was > 100 µM (inactive) and the GI50 (COLO 205) was > 100 µM (inactive). The GI50 (SK-MEL-5) was > 100 µM (inactive), the GI50 (Malme-3M) was > 100 µM (inactive) and the GI50 (HL-60) was > 100 µM (inactive). For the same compound, the GI50 (SF-539) was > 100 µM (inactive), the GI50 (SK-MEL-28) was > 100 µM (inactive) and the GI50 (SK-MEL-2) was > 100 µM (inactive). The GI50 (A549) was > 100 µM (inactive), the GI50 (HOP-62) was > 100 µM (inactive) and the GI50 (MOLT-4) was > 100 µM (inactive). The GI50 (OVCAR-5) was > 100 µM (inactive), the GI50 (U-251) was > 100 µM (inactive) and the GI50 (DLD-1) was > 100 µM (inactive). The GI50 (SNB-75) was > 100 µM (inactive), the GI50 (OVCAR-4) was > 100 µM (inactive) and the GI50 (CCRF-CEM) was > 100 µM (inactive). The GI50 (HCT-15) was greater than 100 µM, the GI50 (LXFL 529) was > 100 µM (inactive) and the GI50 (NCI-H460) was > 100 µM (inactive). For the same compound, the GI50 (OVCAR-8) was > 100 µM (inactive), the GI50 (HT-29) was > 100 µM (inactive) and the GI50 (SW-620) was > 100 µM (inactive). The GI50 (NCI-H23) was > 100 µM (inactive), the GI50 (HOP-92) was > 100 µM (inactive) and the GI50 (RPMI-8226) was > 100 µM (inactive). For the same compound, the GI50 (CAKI-1) was > 100 µM (inactive), the GI50 (LOX IMVI) was > 100 µM (inactive) and the GI50 (SN12C) was > 100 µM (inactive). The GI50 (SNB-78) was > 100 µM (inactive), the GI50 (DMS-273) was > 100 µM (inactive) and the GI50 (HOP-18) was > 100 µM (inactive). For the same compound, the GI50 (KM12) was > 100 µM (inactive), the GI50 (UACC-62) was > 100 µM (inactive) and the GI50 (UACC-257) was > 100 µM (inactive). For the same compound, the GI50 (SK-OV-3) was > 100 µM (inactive), the GI50 (K562) was > 100 µM (inactive) and the GI50 (M14) was > 100 µM (inactive). The GI50 (DMS-114) was > 100 µM (inactive), the GI50 (NCI-H522) was > 100 µM (inactive) and the GI50 (M19-MEL) was > 100 µM (inactive). For the same compound, the GI50 (786-0) was > 100 µM (inactive), the GI50 (SR) was > 100 µM (inactive) and the GI50 (RXF 393) was > 100 µM (inactive). The GI50 (ACHN) was > 100 µM (inactive), the GI50 (SF-295) was > 100 µM (inactive) and the GI50 (NCI-H226) was > 100 µM (inactive). For the same compound, the GI50 (SF-268) was > 100 µM (inactive), the GI50 (HCT-116) was > 100 µM (inactive) and the GI50 (IGROV-1) was > 100 µM (inactive).
